Like-named read-outs stand apart in the source and are kept apart here.
Key:
[1] = assay type: physicochemical; parameters: key to Fibril / Fibril Formation / TEM 2cat / Fibril: 1 = fibrils present; 0 non-fibrillar structures; details: for Fibril / Fibril Formation: 1 mg/mL, uranyl acetate stain, qualitative
[2] = assay type: physicochemical; details: for ThT Cat. / ThT-Fluorescence (categorical): ThT-active if fluorescence at least twice the control
Summary of the method: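 Fibrils (1 mg/mL solution) were mixed with 50 µM ThT in PBS for 15 min at RT, and fluorescence was read at λex 440/λem 488 nm against a PBS blank, as a triplicate mean ± SD. Zeta potential came from electrophoretic mobility (Smoluchowski) after 1 d aggregation at 1 mg/mL in PBS pH 7.4, diluted into 1 mM KCl.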

[3] = Conversion rate (CR) assay with fluorescamine; assay type: physicochemical; parameters: key to CR: % = 100−100×filtrate/original fluorescence intensity; details: conversion rate, fluorescamine assay; for CR / %: Fig. S7 panel B
Summary of the method: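 In the conversion assay, unconverted peptide passing a 3 kDa membrane at 4 °C was labelled with fluorescamine alongside unfiltered PNF, both in DMSO, and read at 365/470 nm after 20 min at room temperature. β-sheet content relied on ATR FT-IR of lyophilized fibril powder.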

[4] = TEM, 1 = fibrils present, 0 = non-fibrillar
[5] = TEM, 1 = fibrils present, 0 = non-fibrillar structures
[6] = category: fibrils present or non-fibrillar
[7] = FigS12 panel A, fibril category by TEM
[8] = ThT fluorescence category, 1 if Rel. ThT >2

Substance	TEM 2cat ([1]; Fig S10 panel D)	Fibril ([1]; Fig S10 panel E)	Fibril / Fibril Formation ([1]; TEM)	Fibril [1, 4]	Fibril [1, 5]	TEM 2cat [1, 6]	Tht category (> 2 to blank = +) ([2]; Fig S10 panel D)	ThT Cat. ([2]; Fig S10 panel E)	ThT Cat, ([2]; ThT category, 1 if Rel. ThT >2)	ThT Cat. ([2]; ThT category, 1 if Rel. ThT >2)	ThT Cat. / ThT-Fluorescence (categorical) [2]	CR / % [3] [%]	CR [3]	TEM 2cat [1, 7]	Fibril ([1]; FigS12 panel B, TEM)	Tht category (> 2 to blank = +) ([2]; FigS12 panel A)	ThT Cat, ([2]; FigS12 panel B)	ThT Cat. [2, 8]
CKFKFQF	1	1	1	1	1	1	1 (ThT. Cat is 1, if Rel. ThT >2)	1 (ThT. Cat is 1, if Rel. ThT >2)	1 (ThT. Cat is 1, if Rel. ThT >2)	1 (ThT. Cat is 1, if Rel. ThT >2)	1 (ThT. Cat is 1, if Rel. ThT >2)	95.6	95.56					
HRRHFRHKITKKK	0	0	0	0	0		0 (ThT-inactive (N-Fold <2))	0 (ThT-inactive (N-Fold <2))	0 (ThT-inactive (N-Fold <2))	0 (ThT-inactive (N-Fold <2))	0 (ThT-inactive (N-Fold <2))	44.9	44.91	0	0	0 (ThT-inactive (N-Fold <2))	0 (ThT-inactive (N-Fold <2))	
HGDKCHGDKC	0	0	0	0	0		0 (ThT-inactive (N-Fold <2))	0 (ThT-inactive (N-Fold <2))	0 (ThT-inactive (N-Fold <2))	0 (ThT-inactive (N-Fold <2))	0 (ThT-inactive (N-Fold <2))	37.4	37.3627	0	0	0 (ThT-inactive (N-Fold <2))	0 (ThT-inactive (N-Fold <2))	
CRFRVPF	0	0	0	0	0		0 (ThT-inactive (N-Fold <2))	0 (ThT-inactive (N-Fold <2))	0 (ThT-inactive (N-Fold <2))	0 (ThT-inactive (N-Fold <2))	0 (ThT-inactive (N-Fold <2))	97.1	97.05	0	0	0 (ThT-inactive (N-Fold <2))	0 (ThT-inactive (N-Fold <2))	
HIHIQIC	1	1	1	1	1	1	1 (ThT. Cat is 1, if Rel. ThT >2)	1 (ThT. Cat is 1, if Rel. ThT >2)	1 (ThT. Cat is 1, if Rel. ThT >2)	1 (ThT. Cat is 1, if Rel. ThT >2)	1 (ThT. Cat is 1, if Rel. ThT >2)	82.7	82.72					
SISISRRI	0	0	0	0	0		0 (ThT-inactive (N-Fold <2))	0 (ThT-inactive (N-Fold <2))	0 (ThT-inactive (N-Fold <2))	0 (ThT-inactive (N-Fold <2))	0 (ThT-inactive (N-Fold <2))	24.2	24.22	0	0	0 (ThT-inactive (N-Fold <2))	0 (ThT-inactive (N-Fold <2))	
CEIEIQI	1	1	1	1	1		1 (ThT. Cat is 1, if Rel. ThT >2)	1 (ThT. Cat is 1, if Rel. ThT >2)	1 (ThT. Cat is 1, if Rel. ThT >2)	1 (ThT. Cat is 1, if Rel. ThT >2)	1 (ThT. Cat is 1, if Rel. ThT >2)	59	59	1	1	1 (ThT. Cat is 1, if Rel. ThT >2)	1 (ThT. Cat is 1, if Rel. ThT >2)	
KIKIQINMWQ	1	1	1	1	1	1	1 (ThT. Cat is 1, if Rel. ThT >2)	1 (ThT. Cat is 1, if Rel. ThT >2)	1 (ThT. Cat is 1, if Rel. ThT >2)	1 (ThT. Cat is 1, if Rel. ThT >2)	1 (ThT. Cat is 1, if Rel. ThT >2)	94.3	94.34					
MDQMDQMDQMDQMDQ	0	0	0	0	0		0 (ThT-inactive (N-Fold <2))	0 (ThT-inactive (N-Fold <2))	0 (ThT-inactive (N-Fold <2))	0 (ThT-inactive (N-Fold <2))	0 (ThT-inactive (N-Fold <2))	53	53.03	0	0	0 (ThT-inactive (N-Fold <2))	0 (ThT-inactive (N-Fold <2))	
KFKFQF	0	0	0	0	0		0 (ThT-inactive (N-Fold <2))	0 (ThT-inactive (N-Fold <2))	0 (ThT-inactive (N-Fold <2))		0 (ThT-inactive (N-Fold <2))	67.4	67.4	0	0	0 (ThT-inactive (N-Fold <2))	0 (ThT-inactive (N-Fold <2))	0 (ThT-inactive (N-Fold <2))
KIKQIINM	1	1	1	1	1	1	0 (ThT-inactive (N-Fold <2))	0 (ThT-inactive (N-Fold <2))	0 (ThT-inactive (N-Fold <2))		0 (ThT-inactive (N-Fold <2))	43	43					0 (ThT-inactive (N-Fold <2))
CRFRFQF	1	1	1	1	1	1	1 (ThT. Cat is 1, if Rel. ThT >2)	1 (ThT. Cat is 1, if Rel. ThT >2)	1 (ThT. Cat is 1, if Rel. ThT >2)	1 (ThT. Cat is 1, if Rel. ThT >2)	1 (ThT. Cat is 1, if Rel. ThT >2)	98.1	98.13					
CHLHLQL	0	0	0	0	0		1 (ThT. Cat is 1, if Rel. ThT >2)	1 (ThT. Cat is 1, if Rel. ThT >2)	1 (ThT. Cat is 1, if Rel. ThT >2)	1 (ThT. Cat is 1, if Rel. ThT >2)	1 (ThT. Cat is 1, if Rel. ThT >2)	96.6	96.58	0	0	1 (ThT. Cat is 1, if Rel. ThT >2)	1 (ThT. Cat is 1, if Rel. ThT >2)	
CETMYDKILKNLSRSR	0	0	0	0	0		0 (ThT-inactive (N-Fold <2))	0 (ThT-inactive (N-Fold <2))	0 (ThT-inactive (N-Fold <2))	0 (ThT-inactive (N-Fold <2))	0 (ThT-inactive (N-Fold <2))	98.9	98.89	0	0	0 (ThT-inactive (N-Fold <2))	0 (ThT-inactive (N-Fold <2))	
RLRLTLC	1	1	1	1	1		0 (ThT-inactive (N-Fold <2))	0 (ThT-inactive (N-Fold <2))	0 (ThT-inactive (N-Fold <2))	0 (ThT-inactive (N-Fold <2))	0 (ThT-inactive (N-Fold <2))	87.4	87.44	1	1	0 (ThT-inactive (N-Fold <2))	0 (ThT-inactive (N-Fold <2))	

From publication PMC10447463, “Data-mining unveils structure–property–activity correlation of viral infectivity enhancing self-assembling peptides” (Nature Communications, 2023)
